From the OPERA property sets (Mansouri et al. 2018)

Settings: for log10 biotransformation half-life (days) / log10 BCF: fish

Row | SMILES | boiling point [°C] | melting point [°C] | other results
1 | CCCCCCOCCOCCO | 260 | -40 | log10 vapour pressure (mmHg): -2.93
2 | CCCCCCC(C)CCC (configuration not stated) | 187 | -77.5 | 
3 | Cl/C=C\Cl | 54.4 | -64.9 | log10 Henry constant (atm·m³/mol): -2.17; log10 Koa: 2.56
4 | OCC(Cl)Cl | 146 |  | 
5 | CC(C)(C)C(=O)C(C)(C)C | 152 | -25.2 | 
6 | CN(C)c1ccc(O)cc1 |  | 77 | 
7 | Fc1cccc2[nH]nnc12 |  |  | log10 Koc (L/kg): 1.87
8 | C=CCNC | 65 |  | 
9 | COC(=O)N/N=C/c1c[n+]([O-])c2ccccc2[n+]1[O-] |  | 240 | 
10 | CC(C)(C)CC(C)(C)Nc1ncnc(N(CCCCCCNC2CC(C)(C)NC(C)(C)C2)C2CC(C)(C)NC(C)(C)C2)n1 |  | 138 | 
11 | Clc1ccc(-c2cccc(Cl)c2Cl)c(Cl)c1 |  |  | log10 Henry constant (atm·m³/mol): -3.85; log10 biotransformation half-life (days): 2.62
12 | CCOC(=O)c1ccncc1 | 220 | 23 | 
13 | O=P([O-])([O-])O[C@@H]1[C@@H](O)[C@H](O)[C@@H](O)[C@H](O)[C@@H]1O |  | 195 | 
14 | Cc1ccc(C)c2c1C(=O)c1ccccc1C2=O |  | 140 | 
15 | CCC(=O)C=C(C)CC | 166 |  | 
16 | CCOc1ccc2c(c1)C(C)=CC(C)(C)N2 |  |  | ready biodegradability: not readily biodegradable
17 | CCCCCCCCF | 142 |  | log10 vapour pressure (mmHg): 0.772
18 | O=C(O)c1ccc2cc(C(=O)O)ccc2c1 |  |  | ready biodegradability: not readily biodegradable; log10 BCF: 0.81
19 | CCC(Cl)C(C)Cl (configuration not stated) | 139 | -77.3 | 
20 | COCCOc1cnc(NS(=O)(=O)c2ccccc2)nc1 |  | 153 | 

Row | SMILES | boiling point [°C] | melting point [°C] | other results
21 | Cc1ccc(N)cc1Cl | 243 | 26 | 
22 | COC(=O)c1cc(C(=O)OC)c(C(=O)OC)cc1C(=O)OC |  | 144 | 
23 | C[Si](C)(C)N=C=N[Si](C)(C)C | 164 | -23 | 
24 | COc1ccccc1Oc1ccccc1 | 288 | 79 | 
25 | CSC(=O)c1c(C(F)F)nc(C(F)(F)F)c(C(=O)SC)c1CC(C)C |  | 65 | 
26 | CC(O)CN(CCN(CC(C)O)CC(C)O)CC(C)O (configuration not stated) |  |  | ready biodegradability: not readily biodegradable
27 | Oc1cccc(S)c1 |  | 16.5 | 
28 | CCOC(=O)C(Cl)(Cl)C(C)=O | 206 |  | 
29 | Clc1cc2ccc(Cl)c(Cl)c2cc1Cl |  |  | log10 Koa: 8.34
30 | CCCCc1cccs1 | 182 |  | 
31 | C#C[C@]1(OC(C)=O)CC[C@H]2[C@@H]3CCC4=C/C(=N/O)CC[C@@H]4[C@H]3CC[C@@]21CC |  | 216 | 
32 | O=C(O)c1cccc([N+](=O)[O-])c1C(=O)O |  |  | ready biodegradability: not readily biodegradable; log10 BCF: 0.72; log10 biotransformation half-life (days): -1.57
33 | CNC(=O)n1cc(F)c(=O)[nH]c1=O |  | 226 | 
34 | ON=Cc1ccc(F)cc1 |  | 83.5 | 
35 | Clc1ccc2c(c1)Oc1ccc(Cl)cc1O2 |  |  | log10 BCF: 2.54; log10 biotransformation half-life (days): 0.23
36 | NCc1ccc(Br)cc1 | 250 | 20 | 
37 | CCCCCSCCCCC |  | -51.3 | 
38 | c1ccc2[nH]ncc2c1 | 269 | 148 | 
39 | CCCCCCOc1ccc(N)cc1 |  | 44 | 
40 | Cc1nn(C)c(OCC(=O)c2ccccc2)c1C(=O)c1ccc(Cl)cc1Cl |  | 112 | log10 vapour pressure (mmHg): -6.44

Row | SMILES | boiling point [°C] | melting point [°C] | other results
41 | CC(C)(C)c1cc(-c2ccccc2)cc(C(C)(C)C)c1O |  |  | ready biodegradability: not readily biodegradable; log10 BCF: 3.78; log10 biotransformation half-life (days): 1.16
42 | Sc1nc2ccccc2[nH]1 |  |  | log10 BCF: 0.41
43 | CC(=O)OCCOC(C)=O | 190 | -31 | log10 vapour pressure (mmHg): -1.11; ready biodegradability: readily biodegradable
44 | CCCCCC(O)CCCCC | 228 | 25 | 
45 | Cc1cccc(Cl)n1 | 184 |  | 
46 | CCN(CC)C(=O)Nc1ccc(OCC(O)CNC(C)(C)C)c(C(C)=O)c1 (configuration not stated) |  | 111 | 
47 | C=CCC(C)(C)C | 72.5 | -137 | 
48 | CCCCCCC(O)CCCCC (configuration not stated) | 225 | 30 | 
49 | ClC(COCC(Cl)C(Cl)(Cl)Cl)C(Cl)(Cl)Cl (configuration not stated) |  | -50 | ready biodegradability: not readily biodegradable; log10 BCF: 3.28
50 | N#CCCOCCC#N | 306 | -26.3 | log10 vapour pressure (mmHg): -3.76; ready biodegradability: readily biodegradable
51 | COc1cccc(OC)c1C |  | 40 | 
52 | NC(=O)c1ccc([N+](=O)[O-])cc1Cl |  | 172 | ready biodegradability: readily biodegradable
53 | CC(C)(O)C#CC(C)(C)O | 205 | 95 | 
54 | COc1ccc2[nH]cc(CCN)c2c1 |  | 122 | 
55 | C=C(C)CC1(CC)C(=O)NC(=S)NC1=O |  | 160 | 
56 | Cc1cc(C)n(-c2ccccc2)n1 | 273 |  | 
57 | O=C(O)CCC(=O)O |  | 188 | log10 vapour pressure (mmHg): -6.72; ready biodegradability: readily biodegradable
58 | CCN(CCO)c1ccc(N=Nc2ccc([N+](=O)[O-])cc2)cc1 |  | 161 | log10 vapour pressure (mmHg): -13.4
59 | C=CCC(C)C(C)C (configuration not stated) | 109 |  | 
60 | C=CC(=O)OCCCC | 145 | -64.6 | log10 vapour pressure (mmHg): 0.737; ready biodegradability: readily biodegradable
